Test results reported in patent US9155770B2.

How the values were obtained:
[1] = system: TNF-RE tkLuc; experiment: Effect of antiestrogens on TNF-RE tkLuc (Example 2); assay type: cell-based, human; conditions: in contrast to E2
[2] = system: estrogen receptor-positive breast cancer; conditions: five years of therapy; cited from earlier work
[3] = system: primary invasive breast cancer; conditions: women at high risk for breast cancer; cited from earlier work
[4] = target: T1, ERβ (Homo sapiens, UniProt Q92731); experiment: TNF-RE tkLuc repression in U2OS cells with ERβ; assay type: cell-based; set-up: expressed in transfected cells
T1 sequence (Q92731 whole entry): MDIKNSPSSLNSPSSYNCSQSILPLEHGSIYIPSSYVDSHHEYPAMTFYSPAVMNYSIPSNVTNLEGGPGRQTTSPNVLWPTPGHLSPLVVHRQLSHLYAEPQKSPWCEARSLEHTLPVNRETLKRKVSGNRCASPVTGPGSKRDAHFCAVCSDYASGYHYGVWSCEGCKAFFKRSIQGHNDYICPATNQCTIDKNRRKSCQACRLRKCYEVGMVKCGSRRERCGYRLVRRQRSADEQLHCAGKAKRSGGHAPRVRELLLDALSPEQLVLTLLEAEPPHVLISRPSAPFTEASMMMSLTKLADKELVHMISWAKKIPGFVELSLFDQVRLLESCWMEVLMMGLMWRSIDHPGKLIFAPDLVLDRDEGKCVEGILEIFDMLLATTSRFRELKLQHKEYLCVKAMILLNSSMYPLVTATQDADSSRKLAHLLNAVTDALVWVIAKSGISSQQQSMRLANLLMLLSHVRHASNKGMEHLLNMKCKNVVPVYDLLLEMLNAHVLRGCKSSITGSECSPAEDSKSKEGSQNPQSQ

[5] = target: T1, ERβ; conditions: Example 2
[6] = target: T1, ERβ; experiment: ERE-tk-Luc luciferase assay in U2OS cells with ERβ; assay type: cell-based; set-up: expressed in transfected cells; host or cells: U2OS (human osteosarcoma); conditions: competition with the extract

Question: Which “activation of TNF-RE tkLuc” value [1] does the source give for `C[C@]12CC[C@@H]3c4ccc(O)cc4C[C@@H](CCCCCCCCC[S+]([O-])CCCC(F)(F)C(F)(F)F)[C@H]3[C@@H]1CC[C@@H]2O` (stereo partly drawn) [ICI 182, 780] here?
Answer: 2 fold

Question: For `CC/C(=C(\c1ccccc1)c1ccc(OCCN(C)C)cc1)c1ccccc1` [tamoxifen], which “reduction of mortality from breast cancer” value [2] is on record?
Answer: 22%

Question: And the “reduction of risk of recurrences” value [2]?
Answer: 42%

Question: And the “activation of TNF-RE tkLuc” value [1]?
Answer: 2 fold

Question: What about the “reduction of risk of primary invasive breast cancer” value [3] of the same compound?
Answer: 49%

Question: Which results are given for `C[C@]12CC[C@@H]3c4ccc(O)cc4CC[C@H]3[C@@H]1CC[C@@H]2O` [E2, estradiol]?
Answer: repression of TNF-α activation of TNF-RE with ERβ [4]: 100%; repression of TNF-α activation of TNF-RE tkLuc with ERβ [5]: 60-80%

Question: With `O=C(c1ccc(OCCN2CCCCC2)cc1)c1c(-c2ccc(O)cc2)sc2cc(O)ccc12` [raloxifene] as the compound, how does the “activation of TNF-RE tkLuc” value [1] read?
Answer: 2 fold

Question: What about the “effect of SERM antagonist on extract-stimulated ERE with ERβ (FIG. 6)” value [6] of the same compound?
Answer: inhibited
